Measured values published in patent US7442380B2, “Treatment of diseases caused by viral infection” (Apodemus AB, priority 2003, dated 2008).

Columns and labels:
Ljungan virus (LV145 SL) = experiment: Antiviral therapy of diabetes in male offspring of Ljungan virus infected laboratory mice; type: in vivo, CD1 mice; settings: for frequency of animals with diabetes, as measured by GTT: vs infected untreated mice
Method: Glucose tolerance test was performed to determine the diagnosis of diabetes. In this test 2 g glucose per kg body weight was administrated intraperitoneally (as 100 mg glucose/ml solution). Blood glucose was measured (Medisence Precision PCx Abbott Laboratories) just before the glucose injection and at 60 and 120 minutes post administration. Diabetes was defined as a blood glucose level above 200 mg/dL in a glucose tolerance test at 120 min.
Abdominal fat in male mice was measured by dissecting out the bilateral scrotal fat cushion. The total weight of both fat cushions was used.
The serum insulin level was measured using a rat insulin high range ELISA kit (Mercodia AB, Uppsala, Sweden) according to the instructions of the manufacturer. Islets prepared from the pancreas were assayed for insulin release and glucose oxidation assay described elsewhere (Blixt, M., Niklasson, B. & Sandler, S. Characterization of β-cell function of pancreatic islets isolated from bank voles developing glucose intolerance/diabetes: an animal model showing features of both type 1 and type 2 diabetes mellitus. Manuscript submitted).
Pregnant outbred CD1 mice (CD-1 (ICR) Br Charles River laboratories, Germany) were infected intraperitoneally with 1000 ID50 units of LV145 SL two days after conception. Control animals were given an injection with the same volume with normal saline at the same time. All female mice were kept in individual cages and followed for the development of gestational diabetes, pregnancy outcome and development of diabetes in the offspring. In half of the infected pregnant mice, mild stress was induced by adding glucose (100 g/liter) to drinking water, performing weekly weights and glucose tolerance testing during the last week of pregnancy. The uninfected control group of pregnant mice was also subjected to stress. Antiviral therapy using LV-specific murine antisera or the oral antiviral compound Pleconaril (200 mg per kg body weight) administrated once a day for 4 consecutive days or a combination of antiserum and Pleconaril was initiated at 5 weeks of age (11-13). At 15 weeks animals were tested by a glucose tolerance test (GTT). Also, serum insulin level and abdominal fat were measured and the histopathology of the pancreas was examined.
Antiviral therapy using LV-specific murine antisera (group IV) or the oral antiviral compound Pleconaril (200 mg per kg body weight) administrated once a day for 4 consecutive days (group III) or a combination of antiserum and Pleconaril (group V) was initiated at 5 weeks of age.
Mice were treated with a combination of Pleconaril and antisera and interferon α. Interferon a was given as 2×10^7 IU/kg/day during three consecutive days during the same week Pleconaril and specific immunoglobulin was administrated. […] In addition, the combination therapy (Pleconaril, antisera, and interferon) normalize the amount of abdominal fat and the level of serum insulin, reducing them to normal levels.

Ljungan virus = Ljungan virus in tissue culture of Vero cells with Pleconaril (CPE); type: cell-based
Description: (§1) Ljungan virus was first tested in tissue culture of Vero cells in combination with Pleconaril. 1,6 micrograms of active substance per ml of the tissue culture medium were used. This dose was used in all experiment below where it says “with Pleconaril”.
10 000 000 tissue culture infectious doses (TCID) of Ljungan virus treated with Pleconaril give full cytopathogenic effect (CPE) in 4 days while the control culture with no Pleconaril show full CPE in 3 days.
(§2) For a control picornavirus known not to be sensitive to Pleconaril no inhibition of any amount of the virus can be detected. […] This means that Ljungan virus is semi-sensitive” or “semi-resistant” to Pleconaril.

[1] = system: arctic fox with severe encephalitis (Ljungan virus); experiment: Encephalitis in arctic fox treated with Pleconaril; type: in vivo; settings: one arctic fox, 50 mg/kg twice daily for 7 days
Description: The arctic fox in Sweden is a species close to being extinct. The reason for this is unknown. Nordens Ark has a breeding program for arctic foxes with the aim to save the species. However, several animals in captivity have developed encephalitis and died. Nordens Ark has lost almost all their animals. The encephalitis is a slow progressing disease often starting with stereotypic behaviour followed by visual problem, loss of smell and loss of muscle coordination. The condition is slowly progressing over several months leading to the deaths of the animal. No spontaneous recovery has been seen in any of the arctic foxes observed.
Ljungan virus was isolated from the brain of one arctic fox suffering from encephalitis. Ljungan virus RNA was also detected by PCR in the brain and the heart of the same individual. Ljungan virus could also be detected in the brain and the heart by immunohistochemistry.
One arctic fox with severe encephalitis was treated with 50 mg/kg of Pleconaril twice daily for 7 days.

Bank voles with diabetes = experiment: Diabetic bank voles, oral Pleconaril, glucose tolerance test; type: in vivo; settings: 100 mg/kg per day for seven days orally in drinking water; GTT 60 min, day before treatment vs 15 days later; none of six control animals
Method: Bank voles with diabetes were randomised into 2 groups one treated with Pleconaril and one not receiving any treatment. Treated animals were given 100 mg Pleconaril per kg body weight per day seven days. The drug was administered orally in the drinking water. All animals were subjected to a glucose tolerance test the day before the treatment and again 15 days later. Glucose tolerance test was performed by administrating 2 grams of glucose per kg BW intraperitoneally. The blood glucose levels were measured after 60 min.

[2] = system: control picornavirus known not to be sensitive to Pleconaril; experiment: Tissue culture with Pleconaril, control picornavirus known not to be sensitive; type: cell-based; settings: any amount of the virus, 1,6 micrograms Pleconaril per ml
Description: as §1, §2

[3] = system: picornavirus known to be sensitive to Pleconaril; experiment: Tissue culture with Pleconaril, picornavirus known to be sensitive; type: cell-based; settings: 10 000 000 TCID, 1,6 micrograms Pleconaril per ml
Description: as §1, §2

## Cc1cc(CCCOc2c(C)cc(-c3noc(C(F)(F)F)n3)cc2C)on1 [Pleconaril, 3-[3,5-dimethyl-4-[[3-(3-methyl-5-isoxazolyl)propyl]oxy]phenyl]-5-(trifluoromethyl)-1,2,4-oxadiazole]
Ljungan virus (LV145 SL); Table 2, GTT at 15 weeks, therapy started at 5 weeks, number of mice, infected no treatment 8 of 11
  No. with blood glucose > 200 md/dL at 120 min: 1
Ljungan virus (LV145 SL); Table 2, GTT at 15 weeks, infected no treatment 73%
  No. with blood glucose > 200 md/dL at 120 min (percent): 9%
Ljungan virus (LV145 SL); Table 2, GTT at 15 weeks, infected no treatment 242
  Blood glucose at 60 min: 211
Ljungan virus (LV145 SL); Table 2, at 15 weeks, infected no treatment 5.04
  Serum insulin: 4.15 µg/L
Ljungan virus (LV145 SL); Table 2, male mice at 15 weeks, infected no treatment 2.9
  Abdominal fat in gram: 2.1 gram
Ljungan virus (LV145 SL); Table 7, infected mice, number of mice, no treatment 8 of 11
  No. Hyperglycemic: 1
Ljungan virus (LV145 SL); Table 7, infected mice, no treatment 73%
  No. Hyperglycemic (percent): 9%
Ljungan virus (LV145 SL); Table 7, infected mice, spread in brackets, no treatment 2.90 (0.84)
  Abdominal fat: 2.20 (1.0) g
Ljungan virus (LV145 SL); Table 7, infected mice, spread in brackets, no treatment 5.04 (2.30)
  Serum insulin: 4.15 (5.03) μg/L
Ljungan virus (LV145 SL); Table 7, infected mice, spread in brackets, no treatment 242 (75)
  Blood glucose @ 60 minutes: 211 (79) mg/dL
Ljungan virus (LV145 SL)
  frequency of animals with diabetes, as measured by GTT: reduced the frequency of animals with diabetes
Ljungan virus (LV145 SL); listed as Pleconaril alone
  frequency of animals with diabetes, as measured by GTT: reduced the frequency of diabetes
Ljungan virus; 10 000 000 TCID of Ljungan virus, Vero cells, 1,6 micrograms Pleconaril per ml, control culture without Pleconaril full CPE in 3 days
  time to full cytopathogenic effect (CPE): 4 days
Ljungan virus; 100 TCID of Ljungan virus, Vero cells, 1,6 micrograms Pleconaril per ml
  inhibition of Ljungan virus: fully inhibited
Ljungan virus; Vero cells, 1,6 micrograms per ml
  sensitivity of Ljungan virus to Pleconaril (conclusion): semi-sensitive
[1]
  clinical condition after the treatment: improved
  course after several months: signs and symptoms of encephalitis came back
Bank voles with diabetes
  animals improved with blood glucose levels decreasing more than 200 mg per dl: 2 out of six
[2]
  inhibition of control picornavirus: no inhibition
[3]
  inhibition of sensitive picornavirus (CPE): inhibited (no CPE)
